Laboratory results taken from US20240252490A1, “Combination Therapies Comprising Kras Inhibitors and SPH2 Inhibitors” (HUYABIO International, LLC, priority 2022, published 2024).
Where “and” joins values, the source holds several entries; their conditions need not be identical. Equal values may be shown once. Read-outs that look alike come from different tables or passages of the source.

Assays:
[1] = tested on: NCI-H1373-luc ICA tumor model; assay: in vivo anti-tumor efficacy, intra-carotid artery metastatic brain tumor model (bioluminescence); design: species or system Nu/Nu mice; conditions: for T/C / TGI: day 21, from log 10 Bioluminescence
Source text: The objective of this Example is to evaluate the in vivo anti-tumor efficacy of AMG510 (positive control KRAS G12C inhibitor), MRTX 849 (positive control KRAS G12C inhibitor) and HBI-2438 (a KRAS G12C inhibitor of the invention) in NCH-H1373-luc ICA, an intra-carotid artery metastatic brain tumor model, in Nu/Nu mice. HBI-2438 (the compound of Formula Ia) was supplied by Huyabio International, LLC. This intra-carotid artery model is well recognized in the art for evaluating the ability of a target compound to treat metastatic brain tumor.
All the procedures related to animal handling, care and the treatment in the study were performed according to the guidelines approved by the Institutional Animal Care and Use Committee (IACUC) of WuXi AppTec, following the guidance of the Association for Assessment and Accreditation of Laboratory Animal Care (AAALAC). At the time of routine monitoring, the animals were checked daily for tumor growth and any effects of treatments on normal behavior such as mobility, food and water consumption (by looking only), body weight gain/loss (body weights were measured twice per week), eye/hair matting and any other abnormal effect as stated in the protocol. Death and observed clinical signs were recorded on the basis of the numbers of animals within each subset.
Methods: The NCI-H1373-luc tumor cells were maintained in medium supplemented with 10% heat inactivated fetal bovine serum at 37° C. in an atmosphere of 5% CO2 in air. The tumor cells were routinely subcultured twice weekly. The cells growing in an exponential growth phase were harvested and counted for tumor inoculation. Each mouse was inoculated with NCI-H1373-luc tumor cells (0.5×10^5) in 100 μL of PBS. The animals were randomized and treatments were started when the Bioluminescence signal reached 8*10^6. After grouping, the bioluminescence measurements were taken once per week with IVIS (Lumina II).
Each mouse was inoculated with NCI-H1373-luc tumor cells (0.5×10^5) in 100 μL of PBS. The animals were randomized and treatments were started when the Bioluminescence signal reached 8*10^6. After grouping, the bioluminescence measurements were taken once per week with IVIS (Lumina II).
Tumor growth inhibition rate for test articles in the NCI-H1373-luc model was calculated based on log 10 Bioluminescence measurement at day 21 after the start of treatment, as shown in Table 3.

[2] = tested on: colorectal cancer xenograft model CR2528; assay: in vivo therapeutic efficacy, subcutaneous HuPrime colorectal cancer xenograft model (tumor volume); design: species or system female BALB/c Nude mice; conditions: Day 20
Protocol: The above test articles were administered as single agent or in specific combination settings as described in Table 4. […] HBI-2438 and HBI-2376 (the compound of Formula Ia and the compound of Formula IIa, respectively) were supplied by Huyabio International, LLC.
(c) Tumor Inoculation: Tumor fragments from stock mice were harvested and used for inoculation into mice. Each mouse was inoculated subcutaneously in the right flank with CR2528 model tumor fragment (2-3 mm in diameter) for tumor development on May 25, 2022.
(d) Randomization: The randomization started when the mean tumor size reached 160 mm^3. 99 mice were enrolled in the study. All animals were randomly allocated to 11 study groups, 9 mice in each group. Randomization was performed based on “Matched distribution” method/“Stratified” method (StudyDirector™ software, version 3.1.399.19)/randomized block design. The date of randomization was denoted as day 0 (Jun. 13, 2022).
(§1) Tumor volumes were measured twice per week after randomization in two dimensions using a caliper, and the volume was expressed in mm^3 using the formula: “V=(L×W×W)/2, where V is tumor volume, L is tumor length (the longest tumor dimension) and W is tumor width (the longest tumor dimension perpendicular to L). Dosing as well as tumor and body weight measurements were conducted in a Laminar Flow Cabinet. The body weights and tumor volumes were measured by using StudyDirector™ software (version 3.1.399.19).
The treatments on both primary and secondary studies were performed for 3 weeks. The primary study was terminated on Day 21 with plasma and tumor samples collection. For secondary analysis tumor samples were collected after the final dose and were transferred in a sterile tube, to be frozen into liquid nitrogen. All the frozen tumor samples were stored in −80° C.

[3] = type: in vivo; conditions: for BW change: Day 20 vs Day 0
Protocol: Observation and Data Collection: After tumor cells inoculation, the animals were checked daily for morbidity and mortality. During routine monitoring, the animals were checked for any effects of tumor growth and treatments on behavior such as mobility, food and water consumption, body weight gain/loss (body weights were measured twice per week after randomization), eye/hair matting and any other abnormalities. Mortality and observed clinical signs were recorded for individual animals in detail.
as §1

[4] = 30 mg/kg PO QD, day 0 after start of treatment

With `C=CC(=O)N1CCN(c2nc(=O)n(-c3c(C)ccnc3C(C)C)c3nc(-c4c(O)cccc4F)c(F)cc23)[C@@H](C)C1` [AMG-510, reference compound] the “log 10 Bioluminescence (mean ± SEM)” value [1, 4] was 6.86 ± 0.09, the “log 10 Bioluminescence (mean ± SEM)” value ([1]; 30 mg/kg PO QD, day 7) was 6.12 ± 0.06 and the “log 10 Bioluminescence (mean ± SEM)” value ([1]; 30 mg/kg PO QD, day 14) was 6.32 ± 0.25. For the same molecule, the “log 10 Bioluminescence (mean ± SEM)” value ([1]; 30 mg/kg PO QD, day 21) was 6.69 and 6.69 ± 0.3, the T/C ([1]; 30 mg/kg PO QD) was 79.3% and the TGI ([1]; 30 mg/kg PO QD) was 111.5%.
For `C[C@@H]1OCC2(CCN(c3cnc(Sc4ccnc(N)c4Cl)c(N)n3)CC2)[C@@H]1N` [TNO-155, reference compound], the T/C ([2]; 5 mg/kg QD) was 53.02%, the TGI ([2]; 5 mg/kg QD) was 46.98% and the “Tumor Volume (mean ± SEM)” value ([2]; 5 mg/kg QD) was 916.21 ± 100.32 mm^3.
With `C=CC(=O)N1C[C@@H]2C(=O)N(CCN(C)C)c3c(c4cc(Cl)c(-c5c(O)cccc5F)nc4n(-c4c(C)ccnc4C(C)C)c3=O)N2C[C@H]1C` [HBI-2438] the T/C ([2]; 10 mg/kg QD) was 84.37%, the TGI ([2]; 10 mg/kg QD) was 15.63% and the “Tumor Volume (mean ± SEM)” value ([2]; 10 mg/kg QD) was 1458.01 ± 164.19 mm^3. For the same molecule, the T/C ([2]; 30 mg/kg QD) was 52.41%, the TGI ([2]; 30 mg/kg QD) was 47.59% and the “Tumor Volume (mean ± SEM)” value ([2]; 30 mg/kg QD) was 905.6 ± 108.46 mm^3. For the same molecule, the T/C ([2]; 100 mg/kg QD) was 43.69%, the TGI ([2]; 100 mg/kg QD) was 56.31% and the “Tumor Volume (mean ± SEM)” value ([2]; 100 mg/kg QD) was 754.97 ± 98 mm^3. For the same molecule, the “Day 0 BW (mean ± SEM)” value ([3]; 10 mg/kg QD) was 22.32 ± 0.57, the “Day 20 BW (mean ± SEM)” value ([3]; 10 mg/kg QD) was 22.19 ± 0.81 and the BW change ([3]; 10 mg/kg QD) was −0.62%. For the same molecule, the “Maximum mean BWL” value ([3]; 10 mg/kg QD, on Day 20) was −0.62% on, the “Maximum mean BWL” value ([3]; 30 mg/kg QD) was “No BWL” and the “Day 0 BW (mean ± SEM)” value ([3]; 30 mg/kg QD) was 22.54 ± 0.61. For the same molecule, the “Day 20 BW (mean ± SEM)” value ([3]; 30 mg/kg QD) was 23.89 ± 0.58, the BW change ([3]; 30 mg/kg QD) was 6.12% and the “Maximum mean BWL” value ([3]; 100 mg/kg QD) was “No BWL”. The “Day 0 BW (mean ± SEM)” value ([3]; 100 mg/kg QD) was 21.91 ± 0.57, the “Day 20 BW (mean ± SEM)” value ([3]; 100 mg/kg QD) was 22.31 ± 0.71 and the BW change ([3]; 100 mg/kg QD) was 1.86%. For the same molecule, the “log 10 Bioluminescence (mean ± SEM)” value ([1]; 15 mg/kg PO QD, day 0 after start of treatment) was 6.86 ± 0.11, the “log 10 Bioluminescence (mean ± SEM)” value ([1]; 15 mg/kg PO QD, day 7) was 6.49 ± 0.14 and the “log 10 Bioluminescence (mean ± SEM)” value ([1]; 15 mg/kg PO QD, day 14) was 6.44 ± 0.2. The “log 10 Bioluminescence (mean ± SEM)” value ([1]; 15 mg/kg PO QD, day 21) was 6.58 and 6.58 ± 0.21, the T/C ([1]; 15 mg/kg PO QD) was 78.1% and the TGI ([1]; 15 mg/kg PO QD) was 118.2%. For the same molecule, the “log 10 Bioluminescence (mean ± SEM)” value [1, 4] was 6.86 ± 0.1, the “log 10 Bioluminescence (mean ± SEM)” value ([1]; 30 mg/kg PO QD, day 7) was 6.09 ± 0.07 and the “log 10 Bioluminescence (mean ± SEM)” value ([1]; 30 mg/kg PO QD, day 14) was 5.86 ± 0.12. The “log 10 Bioluminescence (mean ± SEM)” value ([1]; 30 mg/kg PO QD, day 21) was 6.00 and 6.00 ± 0.13, the T/C ([1]; 30 mg/kg PO QD) was 71.2% and the TGI ([1]; 30 mg/kg PO QD) was 155.8%. For the same molecule, the “log 10 Bioluminescence (mean ± SEM)” value ([1]; 100 mg/kg PO QD, day 0 after start of treatment) was 6.86 ± 0.11, the “log 10 Bioluminescence (mean ± SEM)” value ([1]; 100 mg/kg PO QD, day 7) was 5.92 ± 0.09 and the “log 10 Bioluminescence (mean ± SEM)” value ([1]; 100 mg/kg PO QD, day 14) was 6.04 ± 0.2. The “log 10 Bioluminescence (mean ± SEM)” value ([1]; 100 mg/kg PO QD, day 21) was 6.09 and 6.09 ± 0.24, the T/C ([1]; 100 mg/kg PO QD) was 72.2% and the TGI ([1]; 100 mg/kg PO QD) was 150.0%.
In the case of `C=C(F)C(=O)N1CCN(c2nc(OC[C@@H]3CCCN3C)nc3c2CCN(c2cccc4cccc(Cl)c24)C3)C[C@@H]1CC#N` [MRTX849, reference compound], the T/C ([2]; 100 mg/kg QD) is reported as 41.56%, the TGI ([2]; 100 mg/kg QD) is reported as 58.44% and the “Tumor Volume (mean ± SEM)” value ([2]; 100 mg/kg QD) is reported as 718.22 ± 151.89 mm^3. The “log 10 Bioluminescence (mean ± SEM)” value [1, 4] was 6.83 ± 0.14, the “log 10 Bioluminescence (mean ± SEM)” value ([1]; 30 mg/kg PO QD, day 7) was 6.38 ± 0.21 and the “log 10 Bioluminescence (mean ± SEM)” value ([1]; 30 mg/kg PO QD, day 14) was 6.24 ± 0.18. The “log 10 Bioluminescence (mean ± SEM)” value ([1]; 30 mg/kg PO QD, day 21) was 6.01 and 6.01 ± 0.14, the T/C ([1]; 30 mg/kg PO QD) was 71.3% and the TGI ([1]; 30 mg/kg PO QD) was 152.6%.
In the case of `C[C@@H]1OCC2(CCN(c3cnc(Sc4cccc(NC(=O)c5c(O)nc6n(c5=O)CCCC6)c4Cl)cn3)CC2)[C@@H]1N` [HBI-2376, N-(3-((5-((3S,4S)-4-amino-3-methyl-2-oxa-8-azaspiro[4.5]decan-8-yl)pyrazin-2-yl)thio)-2-chlorophenyl)-2-hydroxy-4-oxo-6,7,8,9-tetrahydro-4H-pyrido[1,2-a]pyrimidine-3-carboxamide], the T/C ([2]; 5 mg/kg QD) is reported as 27.18%, the TGI ([2]; 5 mg/kg QD) is reported as 72.82% and the “Tumor Volume (mean ± SEM)” value ([2]; 5 mg/kg QD) is reported as 469.69 ± 81.71 mm^3. The “Day 0 BW (mean ± SEM)” value ([3]; 5 mg/kg QD) was 22.79 ± 0.69, the “Day 20 BW (mean ± SEM)” value ([3]; 5 mg/kg QD) was 22.03 ± 1.05 and the BW change ([3]; 5 mg/kg QD) was −3.36%. The “Maximum mean BWL” value ([3]; 5 mg/kg QD, on Day 20) was −3.36% on.
